The values below come from US5559153A, “Urea-substituted benzoylguanidines, process for their preparation, their use as pharmaceutical or diagnostic, and pharmaceutical containing them” (priority 1993, dated 1996).

Data set [1] deals with T1, Na^+ /H^+ exchanger of rabbit erythrocytes (Oryctolagus cuniculus, UniProt P23791).
T1 construct: Na^+ influx into the erythrocytes via Na^+ /H^+ exchange; endogenous in cells; host or cells: intact erythrocytes from blood of cholesterol-fed New Zealand White rabbits (Ivanovas)
T1 sequence (P23791 whole entry): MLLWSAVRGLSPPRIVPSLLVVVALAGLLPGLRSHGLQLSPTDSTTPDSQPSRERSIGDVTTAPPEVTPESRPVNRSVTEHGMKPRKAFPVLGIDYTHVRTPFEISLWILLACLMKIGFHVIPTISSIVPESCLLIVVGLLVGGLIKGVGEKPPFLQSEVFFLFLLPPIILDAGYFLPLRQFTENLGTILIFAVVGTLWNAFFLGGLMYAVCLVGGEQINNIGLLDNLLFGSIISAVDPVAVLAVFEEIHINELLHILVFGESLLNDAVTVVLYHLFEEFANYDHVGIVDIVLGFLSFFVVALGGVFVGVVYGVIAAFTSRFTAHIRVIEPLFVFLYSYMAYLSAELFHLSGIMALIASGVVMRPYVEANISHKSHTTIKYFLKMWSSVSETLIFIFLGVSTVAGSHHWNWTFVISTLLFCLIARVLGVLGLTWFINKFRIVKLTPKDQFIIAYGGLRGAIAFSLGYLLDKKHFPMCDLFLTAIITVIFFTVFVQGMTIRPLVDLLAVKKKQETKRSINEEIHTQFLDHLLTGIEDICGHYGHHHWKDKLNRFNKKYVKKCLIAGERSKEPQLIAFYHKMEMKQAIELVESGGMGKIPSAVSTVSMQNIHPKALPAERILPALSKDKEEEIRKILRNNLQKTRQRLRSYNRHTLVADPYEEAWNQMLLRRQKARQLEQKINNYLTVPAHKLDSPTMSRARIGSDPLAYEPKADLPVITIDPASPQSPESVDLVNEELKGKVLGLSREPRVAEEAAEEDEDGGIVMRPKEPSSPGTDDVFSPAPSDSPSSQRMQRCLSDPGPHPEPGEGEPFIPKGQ
In words: Inhibition of the Na^+ /H^+ exchanger of rabbit erythrocytes (Na^+ influx by flame photometry). Format: cell-based, rabbit (New Zealand White). The conditions noted are these: pH 7.4, 37° C., Na^+ influx in hyperosmolar salt/sucrose medium. The source says:
Inhibition of the Na^+ /H^+ exchanger of rabbit erythrocytes:
New Zealand White rabbits (Ivanovas) received a standard diet containing 2% cholesterol for six weeks in order to activate the Na^+ /H^+ exchange and thus to be able to determine, by flame photometry, the Na^+ influx into the erythrocytes via Na^+ /H^+ exchange. The blood was removed from the aural arteries and rendered incoagulable using 25 IE/ml of potassium heparin. A part of each sample was used for the duplicate determination of the hematocrit by means of centrifugation. Aliquots of in each case 100 μl were used for measuring the initial Na^+ content of the erythrocytes.
In order to determine the amiloride-sensitive sodium influx, 100 μl of each blood sample were in each case incubated, at pH 7.4 and 37° C., in 5 ml of a hyperosmolar salt/sucrose medium (mmol/l: 140 NaCl, 3 KCl, 150 sucrose, 0.1 ouabain, 20 tris(hydroxymethyl)aminomethane). The erythrocytes were then washed three times with ice-cold MgCl2 /ouabain solution (mmol/l: 112 MgCl2, 0.1 ouabain) and hemolyzed in 2.0 ml of distilled water. The intracellular sodium content was determined by flame photometry.
The net influx of Na^+ was calculated from the difference between the initial sodium values and the sodium content of the erythrocytes following incubation. The amiloride-inhibitable sodium influx resulted from the difference in the sodium content of the erythrocytes following incubation with and without amiloride 3×10^-4 mol/l. This method was also employed in the case of the compounds according to the invention.

A further data set relates to cardiac arrhythmias. Particulars: in vivo; cited from earlier work.
Data set [2] concerns artificially induced ventricular fibrillation, rat hearts. Particulars: isolated rat hearts; cited from earlier work.

Counter-ions that a name gives are not always drawn.

Broadly, the IC50 is the midpoint of a concentration-inhibition curve. In the case of `N=C(N)NC(=O)c1cc(Cl)ccc1NC(=O)N1CCCCC1` [Example 1, 5-Chloro-2-(piperidinocarbonylamino)benzoylguanidine], the IC50 in data set [1] fell in the range of 1 to 2 µM.
Still for that read-out and setting: the result for `CN(C)C(=O)Nc1ccc(Cl)cc1C(=O)NC(=N)N` [Example 3, 5-Chloro-2-(dimethylaminocarbonylamino)benzoylguanidine hydrochloride] reads 3 µM; that for `CC(C)(C)NC(=O)Nc1ccc(Cl)cc1C(=O)NC(=N)N` [Example 7, 5-Chloro-2-(tert-butylaminocarbonylamino)benzoylguanidine hydrochloride], 3 to 8 µM; that for `CCNC(=S)Nc1cc(C(=O)NC(=N)N)ccc1Cl` [Example 17, 4-Chloro-3-(ethylaminothiocarbonylamino)benzoylguanidine hydrochloride], 3 to 5 µM.
On to `CCCNC(=O)Nc1c(Cl)cc(C(=O)NC(=N)N)cc1Cl` [Example 20, 3,5-Dichloro-4-(n-propylaminocarbonylamino)benzoylguanidine hydrochloride], for which the IC50 in data set [1] fell in the range of 2 to 5 µM.
For `N=C(N)NC(=O)c1cc(Cl)c(NC(=O)Nc2ccccc2)c(Cl)c1` [Example 21, 3,5-Dichloro-4-(phenylaminocarbonylamino)benzoylguanidine hydrochloride], the IC50 in data set [1] is 1 µM.
Take `N=C(N)NC(=O)c1nc(Cl)c(N)nc1N` [amiloride]: in the data set on cardiac arrhythmias, the antiarrhythmic effect result was “only weakly expressed”; the “side effects (hypotensive and saluretic)” value is “hypotensive and saluretic effects”. Moreover, in data set [2], the “suppression of artificially induced ventricular fibrillation” value is recorded as “completely suppress artificially induced ventricular fibrillation”.
As for `CCN(c1nc(N)c(C(=O)NC(=N)N)nc1Cl)C(C)C` [ethylisopropylamiloride], the “suppression of artificially induced ventricular fibrillation” value in data set [2] is reported as “even more potent than amiloride”.
